Among the data in US7566712B2, “Biaryl piperazinyl-pyridine analogues” (Neurogen Corporation, priority 2003, dated 2009) are IC50 values, retold here.

The target in the first assay is T1, human capsaicin receptor (Homo sapiens, UniProt Q8NER1).
T1 construct: pBK-CMV expression construct encoding the full length human capsaicin receptor; expressed in transfected cells
T1 sequence (Q8NER1 whole entry): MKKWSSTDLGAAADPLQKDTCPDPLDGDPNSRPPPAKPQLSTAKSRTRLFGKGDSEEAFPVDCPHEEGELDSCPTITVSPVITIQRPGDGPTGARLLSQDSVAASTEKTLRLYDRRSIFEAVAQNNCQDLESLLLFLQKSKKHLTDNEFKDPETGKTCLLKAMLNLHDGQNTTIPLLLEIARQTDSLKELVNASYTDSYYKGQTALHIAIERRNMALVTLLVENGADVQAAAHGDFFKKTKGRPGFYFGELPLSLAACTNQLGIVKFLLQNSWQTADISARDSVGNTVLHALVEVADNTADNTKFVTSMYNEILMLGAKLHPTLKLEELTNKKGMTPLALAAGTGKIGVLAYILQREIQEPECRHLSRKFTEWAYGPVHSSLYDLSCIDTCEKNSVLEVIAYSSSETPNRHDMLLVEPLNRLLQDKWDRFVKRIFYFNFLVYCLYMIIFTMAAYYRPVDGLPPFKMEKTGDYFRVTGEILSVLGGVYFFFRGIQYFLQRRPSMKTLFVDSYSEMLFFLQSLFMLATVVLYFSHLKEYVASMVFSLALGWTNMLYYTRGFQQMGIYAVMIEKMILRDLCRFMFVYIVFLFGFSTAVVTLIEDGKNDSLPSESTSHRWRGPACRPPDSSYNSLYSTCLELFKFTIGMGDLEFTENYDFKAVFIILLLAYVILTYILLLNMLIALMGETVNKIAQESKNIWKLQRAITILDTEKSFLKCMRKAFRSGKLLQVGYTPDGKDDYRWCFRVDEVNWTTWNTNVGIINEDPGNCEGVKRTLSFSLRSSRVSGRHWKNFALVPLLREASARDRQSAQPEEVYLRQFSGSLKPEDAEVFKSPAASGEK
Put plainly: Calcium mobilization assay, determination of antagonist activity (Example 6). It is filed as cell-based. The conditions noted are these: Table II; IC50 determined as described in Example 6. The essentials:
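HEK293 clonal lines stably expressing full-length human capsaicin receptor, loaded with Fluo-3 AM in KRH buffer pH 7.4, 1–2 h at 37 °C. Compounds (1–5 μM final) preincubated 0.5–6 h at room temperature, then capsaicin at its EC50 added. FLIPR/Fluoroskan calcium signal; IC50 as 50% decrease of capsaicin response.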
One may read the IC50 as the concentration that gives 50% inhibition. Consider `CCN(CC)CCN(C)c1nc(-c2ccc(F)c(Cl)c2)cc(N2CCN(c3ncccc3C(F)(F)F)CC2)n1` [Example 566, N-1-(4-(3-chloro-4-fluorophenyl)-6-{4-[3-(trifluoromethyl)pyridin-2-yl]piperazin-1-yl}pyrimidin-2-yl)-N-2-,N-2-diethyl-N-1-methylethane-1,2-diamine], for which the IC50 was at most 1 µM.

As to `C[C@@H]1CN(c2ncccc2C(F)(F)F)CCN1c1cc(-c2ccc3ccccc3c2)nc(N2CCOCC2)n1` [Example 491, 4-[4-{(2R)-2-methyl-4-[3-(trifluoromethyl)pyridin-2-yl]piperazin-1-yl}-6-(2-naphthyl)pyrimidin-2-yl]morpholine], the IC50 was at most 1 µM.

With `COC(CN(C)c1nc(-c2ccc(F)c(Cl)c2)cc(N2CCN(c3ncccc3C(F)(F)F)CC2)n1)OC` [Example 548, 4-(3-chloro-4-fluorophenyl)-N-(2,2-dimethoxyethyl)-N-methyl-6-{4-[3-(trifluoromethyl)pyridin-2-yl]piperazin-1-yl}pyrimidin-2-amine], the IC50 is at most 1 µM.

As for `Fc1ccc(F)c(-c2nc(N3CCOCC3)nc(N3CCN(c4ccccn4)CC3)n2)c1` [Example 422, 2-(2,5-difluorophenyl)-4-morpholin-4-yl-6-(4-pyridin-2-ylpiperazin-1-yl)-1,3,5-triazine], the IC50 was at most 1 µM.

For `C[C@@H]1CN(c2ncccc2Cl)CCN1c1cc(-c2cccc(OC(F)(F)F)c2)nc(N2CCOCC2)n1` [Example 535, 4-{4-[(2R)-4-(3-chloropyridin-2-yl)-2-methylpiperazin-1-yl]-6-[3-(trifluoromethoxy)phenyl]pyrimidin-2-yl}morpholine], the concentration for half-maximal inhibition (IC50) was at most 1 µM.

Still in this assay, the particulars now being: Table II; IC50 determined as described in Example 6 (antagonist activity, calcium mobilization).
As to `Cc1ccc(-c2cc(N3CCN(c4nccnc4Cl)C[C@H]3C)nc(N3CCOCC3)n2)cc1F` [Example 993, 4-[4-[(2R)-4-(3-chloropyrazin-2-yl)-2-methylpiperazin-1-yl]-6-(3-fluoro-4-methylphenyl)pyrimidin-2-yl]morpholine], the IC50 was at most 1 µM.

Staying with this assay, now noted: Table II; determined as described in Example 6 (antagonist activity); "*" = 1 micromolar or less.
Take `C[C@@H]1CN(c2ncccc2Cl)CCN1c1cc(-c2ccc(F)cc2)nc(N2CCCCC2)n1` [Example 844, 4-[(2R)-4-(3-chloropyridin-2-yl)-2-methylpiperazin-1-yl]-6-(4-fluorophenyl)-2-piperidin-1-ylpyrimidine]: the concentration for half-maximal inhibition (IC50) is at most 1 µM.

Regarding `C[C@@H]1CN(c2ccncc2Cl)CCN1c1cc(-c2ccc(F)c(F)c2)nc(Cl)n1` [Example 826, 2-chloro-4-[(2R)-4-(3-chloropyridin-4-yl)-2-methylpiperazin-1-yl]-6-(3,4-difluorophenyl)pyrimidine], the IC50 is at most 1 µM.

Turning to `C[C@H]1CN(c2nccnc2Cl)CCN1c1cc(-c2ccc(Cl)c(F)c2)nc(N2CCOCC2)n1` [Example 962, 4-{4-(4-chloro-3-fluorophenyl)-6-[(2S)-4-(3-chloropyrazin-2-yl)-2-methylpiperazin-1-yl]pyrimidin-2-yl}morpholine], the 50% inhibitory concentration (IC50) was at most 1 µM.

Consider `C[C@H]1CN(c2ncccc2Cl)CCN1c1cc(-c2ccc(F)c(Cl)c2)nc(N2CCOCC2)n1` [Example 947, 4-{4-(3-chloro-4-fluorophenyl)-6-[(2S)-4-(3-chloropyridin-2-yl)-2-methylpiperazin-1-yl]pyrimidin-2-yl}morpholine], for which the IC50 was at most 1 µM.

As for `C[C@@H]1CN(c2ncccc2Cl)CCN1c1cc(-c2cccnc2)nc(N2CCCC2)n1` [Example 883, 4-[(2R)-4-(3-chloropyridin-2-yl)-2-methylpiperazin-1-yl]-6-pyridin-3-yl-2-pyrrolidin-1-ylpyrimidine], the IC50 was at most 1 µM.

`Cc1cc(-c2cc(N3CCN(c4ncccc4C(F)(F)F)C[C@H]3C)nc(N3CCC3(C)C)n2)ccc1F` [Example 794, 2-(2,2-dimethylazetidin-1-yl)-4-(4-fluoro-3-methylphenyl)-6-{(2R)-2-methyl-4-[3-(trifluoromethyl)pyridin-2-yl]piperazin-1-yl}pyrimidine]: the IC50 is at most 1 µM.

Turning to `CC1CCCN1c1cc(-c2ccc(F)c(Cl)c2)nc(N2CCN(c3nccnc3Cl)C[C@H]2C)n1` (stereo partly shown) [Example 911], the IC50 is at most 1 µM.

Regarding `CC1CCCN1c1nc(-c2cccc(C#N)c2)cc(N2CCN(c3ncccc3Cl)C[C@H]2C)n1` (stereo in doubt) [Example 869, 3-[6-[4-(3-chloropyridin-2-yl)-2-methylpiperazin-1-yl]-2-(2-methylpyrrolidin-1-yl)pyrimidin-4-yl]benzonitrile], the IC50 was at most 1 µM.

As to `Cc1cc(-c2cc(N3CCN(c4ncccc4C(F)(F)F)CC3)nc(N(C)C(C)CO)n2)ccc1F` (stereo not shown) [Example 795], the IC50 is at most 1 µM.

Consider `COc1ccc(-c2cc(N3CCN(c4ncccc4Cl)C[C@H]3C)nc(N3CCCC3C)n2)cc1C` (stereo partly drawn) [Example 810, 4-[(2R)-4-(3-chloropyridin-2-yl)-2-methylpiperazin-1-yl]-6-(4-methoxy-3-methylphenyl)-2-(2-methylpyrrolidin-1-yl)pyrimidine], for which the IC50 was at most 1 µM.

As for `CC1(O)CN(c2nc(-c3ccc(F)c(Cl)c3)cc(N3CCN(c4ncccc4C(F)(F)F)CC3)n2)C1` [Example 778, 1-(4-(3-chloro-4-fluorophenyl)-6-{4-[3-(trifluoromethyl)pyridin-2-yl]piperazin-1-yl}pyrimidin-2-yl)-3-methylazetidin-3-oI], the half-inhibitory concentration (IC50) was at most 1 µM.

Still in this assay, the particulars now being: Table II; determined as described in Example 6; class symbol.
In the case of `c1ccc(N2CCN(c3nc(-c4cccc5ccccc45)nc(N4CCOCC4)n3)CC2)nc1` [Example 270, 2-morpholin-4-yl-4-(1-naphthyl)-6-(4-pyridin-2-ylpiperazin-1-yl)-1,3,5-triazine], the concentration for half-maximal inhibition (IC50) is at most 1 µM.

Staying with this assay, now noted: determined as described in Example 6 (calcium mobilization, antagonist activity); Table II.
For `O=C1CCN1c1nc(-c2ccc(F)c(Cl)c2)cc(N2CCN(c3ncccc3C(F)(F)F)CC2)n1` [Example 747, 1-(4-(3-chloro-4-fluorophenyl)-6-{4-(3-(trifluoromethyl)pyridin-2-yl]piperazin-1-yl}pyrimidin-2-yl)azetidin-2-one], the half-maximal inhibitory concentration (IC50) was at most 1 µM.

`Fc1ccc(-c2cc(N3CCN(c4ncccc4C(F)(F)F)CC3)nc(N3CCCCC3)n2)cc1Cl` [Example 602, 4-(3-chloro-4-fluorophenyl)-2-piperidin-1-yl-6-{4-[3-(trifluoromethyl)pyridin-2-yl]piperazin-1-yl}pyrimidine]: the concentration for half-maximal inhibition (IC50) was at most 1 µM.

With `Cc1cc(-c2cc(N3CCN(c4ncccc4C)CC3)nc(N3CCCC3C)n2)ccc1F` (stereo not shown) [Example 696, 4-(4-fluoro-3-methylphenyl)-6-[4-(3-methylpyridin-2-yl)piperazin-1-yl]-2-(2-methylpyrrolidin-1-yl)pyrimidine], the concentration for half-maximal inhibition (IC50) was at most 1 µM.

Turning to `Cc1cccnc1N1CCN(c2cc(-c3ccc(F)c(F)c3)nc(N3CCCC3C)n2)CC1` (stereo not shown) [Example 703, 4-(3,4-difluorophenyl)-6-[4-(3-methylpyridin-2-yl)piperazin-1-yl]-2-(2-methylpyrrolidin-1-yl)pyrimidine], the IC50 was at most 1 µM.

Take `CCN(CC)c1nc(-c2ccc(F)c(C)c2)cc(N2CCN(c3ncccc3Cl)CC2)n1` [Example 721, 4-[4-(3-chloropyridin-2-yl)piperazin-1-yl]-N,N-diethyl-6-(4-fluoro-3-methylphenyl)pyrimidin-2-amine]: the IC50 is at most 1 µM.

As to `Fc1ccc(-c2cc(N3CCN(c4ncccc4C(F)(F)F)CC3)nc(-c3ccncc3)n2)cc1Cl` [Example 617, 4-(3-chloro-4-fluorophenyl)-2-pyridin-4-yl-6-{4-[3-(trifluoromethyl)pyridin-2-yl]piperazin-1-yl}pyrimidine], the half-maximal inhibitory concentration (IC50) was at most 1 µM.

On to `O=S(=O)(Cc1ccccc1)c1nc(-c2ccc(F)c(Cl)c2)cc(N2CCN(c3ncccc3Cl)CC2)n1` [Example 701, 2-(benzylsulfonyl)-4-(3-chloro-4-fluorophenyl)-6-[4-(3-chloropyridin-2-yl)piperazin-1-yl]pyrimidine], for which the half-maximal inhibitory concentration (IC50) is at most 1 µM.

Consider `CCN(CC)c1nc(-c2ccc(F)c(C)c2)cc(N2CCN(c3ncccc3C(F)(F)F)CC2)n1` [Example 594, N,N-diethyl-4-(4-fluoro-3-methylphenyl)-6-{4-[3-(trifluoromethyl)pyridin-2-yl]piperazin-1-yl}pyrimidin-2-amine], for which the IC50 was at most 1 µM.

In the case of `CC(C)Nc1nc(-c2ccc(F)c(Cl)c2)cc(N2CCN(c3ncccc3C(F)(F)F)CC2)n1` [Example 580, 4-(3-chloro-4-fluorophenyl)-N-isopropyl-6-{4-[3-(trifluoromethyl)pyridin-2-yl]piperazin-1-yl}pyrimidin-2-amine], the IC50 is at most 1 µM.

Consider `CC1CC(=O)N1c1nc(-c2ccc(F)c(Cl)c2)cc(N2CCN(c3ncccc3C(F)(F)F)CC2)n1` (stereo not shown) [Example 740, 1-(4-(3-chloro-4-fluorophenyl)-6-{4-[3-(trifluoromethyl)pyridin-2-yl]piperazin-1-yl}pyrimidin-2-yl)-4-methylazetidin-2-one], for which the IC50 was at most 1 µM.

In the case of `COC[C@@H]1CCCN1c1nc(-c2ccc(F)c(Cl)c2)cc(N2CCN(c3ncccc3Cl)C[C@H]2C)n1` [Example 735, 4-(3-chloro-4-fluorophenyl)-6-[(2R)-4-(3-chloropyridin-2-yl)-2-methylpiperazin-1-yl]-2-[(2S)-2-(methoxymethyl)pyrrolidin-1-yl]pyrimidine], the half-maximal inhibitory concentration (IC50) is at most 1 µM.

Consider `C[C@@H]1CN(c2ncccc2Cl)CCN1c1cc(-c2ccc(F)c(Cl)c2)nc(N2CCCC2)n1` [Example 731, 4-(3-chloro-4-fluorophenyl)-6-[(2R)-4-(3-chloropyridin-2-yl)-2-methylpiperazin-1-yl]-2-pyrrolidin-1-ylpyrimidine], for which the 50% inhibitory concentration (IC50) is at most 1 µM.

For the compound `CC1CCCN1c1nc(-c2ccc(F)c(Cl)c2)cc(N2CCN(c3ncccc3C#N)CC2)n1` (stereo not shown) [Example 709, 2-{4-[6-(3-chloro-4-fluorophenyl)-2-(2-methylpyrrolidin-1-yl)pyrimidin-4-yl]piperazin-1-yl}nicotirionitrile], the half-inhibitory concentration (IC50) is at most 1 µM.
